Data from US20250213665A1, “METHODS FOR INHIBITING TRAINED IMMUNITY WITH NANOBIOLOGIC COMPOSITIONS” (Icahn School of Medicine at Mount Sinai, priority 2017, published 2025).

Test: Recovery and hydrolysis of the (pro-)drugs in nanobiologics
Format: physicochemical
Conditions: 4° C. in PBS
Experimental: From 10 mg/ml stock solutions in chloroform, 1-palmitoyl-2-oleoyl-sn-glycero-3-phosphocholine (POPC, 250 μL), 1-palmitoyl-2-hydroxy-sn-glycero-3-phosphocholine (PHPC, 65 μL), cholesterol (15 μL), tricaprylin (1000 μL) and (pro-)drug (65 μL), were combined in a 20 ml vial and dried under vacuum. The resulting film was redissolved in a acetonitrile:methanol mixture (95%: 5%, 3 mL total volume). Separately, a solution of ApoA-I protein in PBS (0.1 mg/ml) was prepared. Using a microfluidic set-up, both solutions were simultaneously injected into a herringbone mixer, with a flow rate of 0.75 ml/min for the lipid solution and a rate of 6 ml/min for the ApoA-I solution. The obtained solution was concentrated by centrifugal filtration using a […] Vivaspin tube at 4000 rpm to obtain a volume of 5 mL. […]
(Pro-)drug recovery and hydrolysis were determined using the following procedure: an aliquot (200 μL) of the particle solution was dried under vacuum, acetonitrile (600 μL) was added and the suspension was sonicated for 20 minutes. The suspension was centrifuged to precipitate any solids and the remaining solution was analyzed using HPLC; except for the malonate derivatives which were analyzed using SFC-MS, and Dimethylmalonate which was analyzed by GC-MS.

- hydrolysis of the (pro-)drugs in the nanobiologics over time: hydrolysis was observed
Structure (SMILES): CCCCCCCCCCCCCCCCCC(=O)O[C@@H]1CC[C@@H](C[C@@H](C)[C@@H]2CC(=O)[C@H](C)/C=C(\C)[C@@H](O)[C@@H](OC)C(=O)[C@H](C)C[C@H](C)/C=C/C=C/C=C(\C)[C@@H](OC)C[C@@H]3CC[C@@H](C)[C@@](O)(O3)C(=O)C(=O)N3CCCC[C@H]3C(=O)O2)C[C@H]1OC [Cis-Rapamycin]
